{"source": "patent US20100234221A1", "about": "“USE OF TETRAMIC ACID DERIVATIVES WITH FERTILIZERS” (BAYER CROPSCIENCE AG, priority 2006, published 2010)", "key": {"Aphis gossypii": {"test_system": "Aphis gossypii", "test": "Use Example A: field plots of cotton sprayed against Aphis gossypii", "format": "in vivo", "settings": "cotton FM966LL field plots, I-4 44 g of a.i./ha, Dyne-amic 0.455 % (v/v), UAN 0.7 % (v/v) where added", "method": "In three replications, plots of a size of about 66 m^2 with cotton of the cultivar FM966LL are treated against Aphis gossypii. Here, the active compound I-4 (as 1500D formulation) is applied with a sprayer (High Clearance Sprayer, High Boy) at the stated application rates. The amount of water applied is about 150 l/ha. An adjuvant and/or a fertilizer (UAN=ammonium nitrate/urea solution with 28% by weight of nitrogen) are added to the spray liquor at the stated concentration. Here, it becomes evident that the composition according to the invention is equivalent to a composition comprising an adjuvant known to be efficient."}, "[1]": {"test_system": "cotton aphids (Aphis gossypii)", "test": "Example B-1: spray treatment of cotton plants heavily infested by cotton aphids", "format": "in vivo", "settings": "AHL or NH4NO3 12.5 g/l, RME 1 g ai/l where added", "method": "To prepare a suitable product solution, 1 part by weight of formulated goods (for example an oil suspension OD 150 prepared according to known methods) is mixed with water to give the desired concentration. The desired fertilizer or penetrant is added in a defined amount and mixed in well.\nCotton plants (Gossypium herbaceum) which are heavily infested by the cotton aphids (Aphis gossypii) are treated by spraying with the product solution at the desired concentration.\nAfter the desired period of time, the kill in % is determined. Here, 100% means that all aphids have been killed; 0% means that none of the aphids have been killed."}}, "data": [{"molecule": "CCOC(=O)OC1=C(c2cc(C)ccc2C)C(=O)N[C@]12CC[C@@H](OC)CC2", "note": "[Compound I-4]", "values": [{"measurement": "Effect (% Abbott) After 2 days", "setting": "Aphis gossypii; after 2 days", "value": 66.7, "unit": "% Abbott"}, {"measurement": "Effect (% Abbott) After 5 days", "setting": "Aphis gossypii; after 5 days", "value": 65.8, "unit": "% Abbott"}, {"measurement": "Effect (% Abbott) After 9 days", "setting": "Aphis gossypii; after 9 days", "value": 13.9, "unit": "% Abbott"}, {"measurement": "Kill in % after 7d", "setting": "[1]; I-4 0.96 g ai/ha", "value": 25, "unit": "%"}, {"measurement": "Kill in % after 7d", "setting": "[1]; I-4 4.8 g ai/ha", "value": 90, "unit": "%"}]}]}
